Here are results for 17 molecules from ChEMBL document CHEMBL5143506, “Design, synthesis, and mechanism study of dimerized phenylalanine derivatives as novel HIV-1 capsid inhibitors” (Eur J Med Chem, 2021).

Series [1] deals with MT4. In words: (§1) Cytotoxicity against human MT4 cells assessed as reduction in cell viability incubated for 5 days by MTT assay. As to conditions: mt4, 120 h. In general terms: Formazan colour is commonly taken as a measure of viable cells.
In series [2] the test system is Human immunodeficiency virus 1. In words: Antiviral activity against wild type HIV-1 IIIB infected in human MT4 cells assessed as protection against virus-induced cytopathic effect measured after 5 days by MTT assay. In kind it is functional, organism-based. As to conditions: Human immunodeficiency virus 1, IIIB, MT4, 120 h.
Series [3] in a line: in vitro. To be noted: human, MT4 cells.
Description: Selectivity index, ratio of CC50 for cytotoxicity against human MT4 cells to EC50 for antiviral activity against HIV-1 IIIB infected in human MT4 cells
The nature of series [4]: as §1. To be noted: MT4 cells.
Series [5] relates to Human immunodeficiency virus 1. In words: Antiviral activity against HIV1 NL4-3 Env-deficient pseudotype virus infected in human U87.CD4.CCR5.CXCR4 cells assessed by reduction in viral infection in late stage at 5 uM measured after 48 hrs by luciferase activity based single-round infection assay. In kind it is functional. Also noted: scale not given: the % may be the effect or the level left.

The conditions of series [6]: human, microsomes, 3 h, 100 µM.
The test system of series [7] is Human immunodeficiency virus 1. The series is described as follows: Antiviral activity against HIV1 NL4-3 Env-deficient pseudotype virus infected in human U87.CD4.CCR5.CXCR4 cells assessed by reduction in viral infection in early stage at 5 uM measured after 48 hrs by luciferase activity based single-round infection assay. Type of series: functional. Also noted: scale not given: the % may be the effect or the level left.

Series [8] can be described thus: in vitro. As to conditions: human, MT4 cells. The source holds these as a separate data set.
Description: Selectivity index, ratio of CC50 for cytotoxicity against human MT4 cells to EC50 for antiviral activity against HIV-1 ROD infected in human MT4 cells
The conditions of series [9]: human, microsomes, 3 h, 100 µM. The source holds these as a separate data set.
Series [10] in a line: in vitro. To be noted: human, liver microsomes. (Liver microsomes are vesicles of endoplasmic reticulum, rich in cytochrome P450 enzymes.)
Description: Metabolic stability in human liver microsome assessed as parent compound remaining at 100 uM measured after 60 mins in presence of NADPH by LC-MS/MS analysis
A short description of series [11]: in vitro. As to conditions: human, liver microsomes. This is another data set of the same source.
Description: Metabolic stability in human liver microsome assessed as parent compound remaining at 100 uM measured after 60 mins by LC-MS/MS analysis
Series [12] relates to Human immunodeficiency virus 1. The series is described as follows: Antiviral activity against HIV1 NL4-3 Env-deficient pseudotype virus infected in human U87.CD4.CCR5.CXCR4 cells assessed by reduction in viral infection in early stage at 1 uM measured after 48 hrs by luciferase activity based single-round infection assay. Type of series: functional. Also noted: scale not given: the % may be the effect or the level left.

The test system of series [13] is Human immunodeficiency virus 1. The series is described as follows: Antiviral activity against HIV1 NL4-3 Env-deficient pseudotype virus infected in human U87.CD4.CCR5.CXCR4 cells assessed by reduction in viral infection in late stage at 1 uM measured after 48 hrs by luciferase activity based single-round infection assay. In kind it is functional. Also noted: scale not given: the % may be the effect or the level left.

The nature of series [14]: in vitro. To be noted: human, liver microsomes. The source holds these as a separate data set.

For `COc1ccc(N(C)C(=O)[C@H](Cc2ccccc2)NC(=O)CN2CCN(CC(=O)N[C@@H](Cc3ccccc3)C(=O)N(C)c3ccccc3)CC2=O)cc1`, the CC50 in [1] came to 32.4 µM. Further, the EC50 in series [2] is above 32.4 µM.

Consider `COc1ccc(N(C)C(=O)[C@H](Cc2cc(F)cc(F)c2)NC(=O)CN2CCN(CC(=O)N[C@@H](Cc3ccccc3)C(=O)N(C)c3ccccc3)C(=O)C2)cc1`, for which the CC50 in series [1] was 12.8 µM. In addition, the EC50 in series [2] is 4.19 µM. Further, the selectivity ratio in [3] was found to be 3.05.

With `COc1ccc(N(C)C(=O)[C@H](Cc2cc(F)cc(F)c2)NC(=O)CN2CCN(CC(=O)N[C@@H](Cc3ccccc3)C(=O)N(C)c3ccc(OC)cc3)C(=O)C2)cc1`, the CC50 in [1] stood at 13.5 µM. The EC50 in series [2] stood at 1.48 µM. For the same molecule, the selectivity ratio in series [3] was found to be 9.11.

Regarding `COc1ccc(N(C)C(=O)[C@H](Cc2cc(F)cc(F)c2)NC(=O)CN2CCN(CC(=O)N[C@@H](Cc3ccccc3)C(=O)N(C)c3ccccc3)CC2=O)cc1`, in series [1], the CC50 worked out at 17.5 µM. Further, the EC50 in series [2] came out at 2.84 µM. In addition, in series [3], the selectivity ratio came to 6.15.

With `CN(C(=O)[C@H](Cc1ccccc1)NC(=O)CN1CCNCC1=O)c1ccccc1`, the CC50 at 120 h in series [4] is above 317 µM. Also, in [2], the EC50 was found to be 247 µM.

As to `COc1ccc(N(C)C(=O)[C@H](Cc2ccccc2)NC(=O)CN2CCN(CC(=O)N[C@@H](Cc3ccccc3)C(=O)N(C)c3ccccc3)C(=O)C2)cc1`, the CC50 in series [1] came to 21.7 µM. For the same molecule, in [2], the half-maximal effective concentration (EC50) was at least 3.37 µM.

For `COc1ccc(N(C)C(=O)[C@H](Cc2ccccc2)NC(=O)CN2CCNCC2=O)cc1`, in series [1], the CC50 was above 294 µM. For the same molecule, the EC50 in [2] stood at 89.2 µM.

As for `COc1ccc(N(C)C(=O)[C@H](Cc2ccccc2)NC(=O)CN2CCN(CC(=O)N[C@@H](Cc3cc(F)cc(F)c3)C(=O)N(C)c3ccc(OC)cc3)C(=O)C2)cc1`, the CC50 in series [1] was determined as 15.5 µM. The EC50 in series [2] was found to be 2.52 µM. Besides, the selectivity ratio in [3] was 6.14.

As to `COc1ccc(N(C)C(=O)[C@H](Cc2ccccc2)NC(=O)CN2CCN(CC(=O)N[C@@H](Cc3ccccc3)C(=O)N(C)c3ccc(OC)cc3)C(=O)C2)cc1`, the CC50 in [1] was 15.7 µM. Also, the EC50 in [2] is at least 3.67 µM.

As to `COc1ccc(N(C)C(=O)[C@H](Cc2cc(F)cc(F)c2)NC(=O)CN2CCN(CC(=O)N[C@@H](Cc3cc(F)cc(F)c3)C(=O)N(C)c3ccc(OC)cc3)C(=O)C2)cc1`, the Activity in [5] amounted to 0.6%; in series [7], 86.6%. Also, the t1/2 in [6] was determined as 48 s.

Consider `COc1ccc(N(C)C(=O)[C@H](Cc2ccccc2)NC(=O)CN2CC(=O)N(CC(=O)N[C@@H](Cc3ccccc3)C(=O)N(C)c3ccc(OC)cc3)CC2=O)cc1`, for which the CC50 at 120 h in [4] came to 24.5 µM. Besides, the EC50 in series [2] was found to be 3.59 µM. Moreover, the selectivity ratio in series [3] was determined as 6.82.

Regarding `CN(C(=O)[C@H](Cc1ccccc1)NC(=O)CN1CCN(CC(=O)N[C@@H](Cc2ccccc2)C(=O)N(C)c2ccccc2)C(=O)C1)c1ccccc1`, the CC50 in series [1] came out at 32.6 µM. The EC50 in [2] is above 32.6 µM.

As to `CN(C(=O)[C@H](Cc1ccccc1)NC(=O)CN1CC(=O)N(CC(=O)N[C@@H](Cc2ccccc2)C(=O)N(C)c2ccccc2)CC1=O)c1ccccc1`, the selectivity ratio in series [8] was 2.41; in series [3], 16.9. Moreover, in series [1], the CC50 worked out at 71.8 µM. Also, the EC50 in series [2] was 4.24 µM.

`COc1ccc(N(C)C(=O)[C@H](Cc2cc(F)cc(F)c2)NC(=O)CN2CC(=O)N(CC(=O)N[C@@H](Cc3cc(F)cc(F)c3)C(=O)N(C)c3ccc(OC)cc3)CC2=O)cc1` had a CLH in series [9] of 843.9 µL/min/mg. The share remaining at 1 h, 100 µM in series [10] was 0%; in series [11] it was 105%. In addition, in series [1], the CC50 came to 13.3 µM. The EC50 in series [2] came out at 0.69 µM. Also, in series [6], the t1/2 was determined as 96 s.

The molecule `COc1ccc(N(C)C(=O)[C@H](Cc2ccccc2)NC(=O)CN2CCN(S(=O)(=O)c3ccc(N)cc3)CC2=O)cc1` gave a CLH in [9] of 395.6 µL/min/mg. Besides, the fraction remaining at 1 h, 100 µM was 0.1% in series [10] and 106% in series [11]. The Activity was 7.1% in series [12] and 55% in [13]. In series [1], the CC50 came to 119 µM. Besides, the EC50 in series [2] came to 0.16 µM.

With `COc1ccc(N(C)C(=O)[C@H](Cc2cc(F)cc(F)c2)NC(=O)CN2CCNCC2=O)cc1`, in series [1], the CC50 was above 272 µM. For the same molecule, in series [2], the EC50 worked out at 31.1 µM.

In [14], `Cc1[nH]c2ccccc2c1CC(=O)N[C@@H](Cc1ccccc1)C(=O)N(C)c1ccccc1` had a half-life at 3 h, 100 µM of 30 s.

As usually defined, the CC50 is the concentration giving 50% cytotoxicity. One may read the EC50 as the concentration that produces a half-maximal response. One may read the half-life as the time in which the quantity being followed falls by half.
